We go through one compound from patent US8735412B2, “Sulfoximine-substituted anilinopyrimidine derivatives as CDK inhibitors, the production thereof, and use as medicine” (Bayer Intellectual Property GmbH, priority 2008, dated 2014).

pIC50: −log10 of the molar value.

Series [1] relates to HeLa-MaTu cervical carcinoma cells. In words: Proliferation assay (Assay 4), crystal violet staining. The series is classed as cell-based. The conditions noted are these: Homo sapiens, 96 h, 4 days incubation; read-out: HeLa-MaTu (Assay 4) Concentration for 50% inhibition of cellular proliferation, IC50. On the procedure: 10.4 Assay 4: Proliferation Assay
Cultivated human HeLa-MaTu cervical carcinoma cells (obtained from EPO-GmbH, Berlin) were plated at a density of 3000 cells/measuring point in a 96-well multititer is plate in 200 μl of growth medium (DMEM/HAMS F12, 2 mM L-glutamine, 10% fetal calf serum). After 24 hours the cells of one plate (zero-point plate) were stained with crystal violet (see below), whereas the medium of the other plates was replaced with fresh culture medium (200 μl), to which the test substances had been added at various concentrations (0 μM, and in the range 0.01-30 μM; the final concentration of the solvent dimethylsulfoxide was 0.5%). The cells were incubated for 4 days in the presence of the test substances. Cellular proliferation was determined by staining the cells with crystal violet: the cells were fixed by adding 20 μl/measuring point of an 11% glutaraldehyde solution for 15 min at room temperature. After washing the fixed cells with water three times, the plates were dried at room temperature. The cells were stained by adding 100 μl/measuring point of a 0.1% crystal violet solution (pH adjusted to pH3 by adding acetic acid). After washing the stained cells with water three times, the plates were dried at room temperature. The dye was dissolved by adding 100 μl/measuring point of a 10% acetic acid solution. The extinction was determined photometrically at a wavelength of 595 nm. The percentage change in cell growth was calculated by standardization of the measured values to the extinction values of the zero-point plate (=0%) and the extinction of the untreated (0 μM) cells (=100%). The measured data were standardized to 0% inhibition (cell proliferation without inhibitor) and 100% inhibition (zero-point plate). The IC50 values were determined by means of a 4-parameter fit using the company's own software.

The next series has as its target T1, CDK1/CycB (Homo sapiens, UniProt P06493).
T1 construct: purchased ProQinase GmbH, Freiburg; host or cells: baculovirus-infected insect cells (Sf9)
As to the kind of experiment: CDK1/CycB kinase assay (Assay 1). Type of series: biochemical. The conditions noted are these: 0.5 μM ATP, histon IIIS substrate; read-out: CDK1/CycB (Assay 1) Concentration for 50% inhibition of enzyme activity, IC50. On the procedure: 10.1 Assay 1: CDK1/CycB Kinase Assay
Recombinant CDK1 and CycB-GST fusion proteins, purified from baculovirus-infected insect cells (Sf9), were purchased from ProQinase GmbH, Freiburg. The histon IIIS used as kinase substrate is commercially available from the company Sigma.
CDK1/CycB (200 ng/measuring point) was incubated for 10 min at 22° C. in the presence of various concentrations of test substances (0 μM, and within the range 0.01-100 μM) in assay buffer [50 mM Tris/HCl pH8.0, 10 mM MgCl2, 0.1 mM Na ortho-vanadate, 1.0 mM dithiothreitol, 0.5 μM adenosine triphosphate (ATP), 10 μg/measuring point histon IIIS, 0.2 μCi/measuring point ^33P-gamma ATP, 0.05% NP40, 1.25% dimethylsulfoxide]. The reaction was stopped by adding EDTA solution (250 mM, pH8.0, 15 μl/measuring point).
(§1) From each reaction mixture, 15 μl was applied to P30 filter strips (from Wallac), and unincorporated ^33P-ATP was removed by washing the filter strips three times, for 10 min each time, in 0.5% phosphoric acid. After drying the filter strips for 1 hour at 70° C., the filter strips were covered with scintillator strips (MeltiLex™ A, from Wallac) and stoved for 1 hour at 90° C. The amount of incorporated ^33P (substrate phosphorylation) was determined by scintillation measurement in a gamma-radiation measuring instrument (Wallac). The measured data were standardized to 0% inhibition (enzyme reaction without inhibitor) and 100% inhibition (all assay components except enzyme). The IC50 values were determined by means of a 4-parameter fit using the company's own software.

Series [2] has as its target T2, VEGF receptor tyrosine kinase-2 (Homo sapiens, UniProt P35968).
T2 construct: GST; made in house; host or cells: baculovirus-infected insect cells (Sf9)
In words: VEGF receptor-2 kinase assay (Assay 3). The conditions noted are these: 8 μM ATP, poly-(Glu4Tyr) substrate; read-out: VEGF-R2 (Assay 3) Concentration for 50% inhibition of enzyme activity, IC50. Type of series: biochemical. On the procedure: 10.3 Assay 3: VEGF Receptor-2 Kinase Assay
Recombinant VEGF receptor tyrosine kinase-2 was purified as GST fusion protein from baculovirus-infected insect cells (Sf9). Poly-(Glu4Tyr), used as kinase substrate, was purchased from the company Sigma.
VEGF receptor tyrosine kinase (90 ng/measuring point) was incubated for 10 min at 22° C. in the presence of various concentrations of test substances (0 μM, and within the range 0.001-30 μM) in 30 μl assay buffer [40 mM Tris/HCl pH5.5, 10 mM MgCl2, 1 mM MnCl2, 3 μM Na ortho-vanadate, 1.0 mM dithiothreitol, 8 μM adenosine triphosphate (ATP), 0.96 μg/measuring point poly-(Glu4Tyr), 0.2 μCi/measuring point ^33P-gamma ATP, 1.4% dimethylsulfoxide]. The reaction was stopped by adding EDTA solution (250 mM, pH8.0, 15 μl/measuring point).
as §1

Series [3] deals with HeLa-MaTu human cervical carcinoma xenograft. As to the kind of experiment: HeLa-MaTu cervical tumor xenograft model on NMRI nude mice. Type of series: in vivo. The conditions noted are these: oral, 2x daily on day 5, 6, 12, 13, 19, 20. As for the experimental part: HeLa-MaTu (EPO-GmbH, Berlin) human cervical carcinoma cells, which were grown in cell culture, were implanted subcutaneously in the flank of female NMRI nude mice. […] The study was terminated as soon as the tumors in one of the groups reached a size of approx. 150 mm^2.
(§2) The growth-inhibiting effect of the compounds was tested in the HeLa-MaTu cervical tumor model as xenograft on NMRI nude mice. […] Treatment of the established tumors was begun on day 4 after inoculation of the tumors.
as §2, §2
The study was designed for determining the initial response of a human cervical carcinoma xenograft model to treatments with the 5-Br comparative substance V12. The growth-inhibiting effect of the compounds was tested in the HeLa-MaTu cervical tumor model as xenograft on NMRI nude mice. V12 was dissolved completely in the solubilizer 40% polyethylene glycol 400 (PEG 400)/60% water to a final concentration of 0.7 mg/ml (group 2), 0.85 mg/ml (group 3), or 1.0 mg/ml (group 4). Treatment of the established tumors was begun on day 4 after inoculation of the tumors.
HeLa-MaTu (EPO-GmbH, Berlin) human cervical carcinoma cells, which were grown in cell culture, were implanted subcutaneously in the flank of female NMRI nude mice. […] The study was terminated as soon as the tumors in one of the groups reached a size of approx. 160 mm^2.
(§3) The growth-inhibiting effect of the compounds was tested in the HeLa-MaTu cervical tumor model as xenograft on NMRI nude mice. […] Treatment of the established tumors was begun on day 5 after inoculation of the tumors.
as §3, §3
The following test groups were used: • Group 1: Control, treatment with solubilizer (40% PEG 400/60% water) • Group 2: Compound according to WO 2005/037800 prepared according to preparation V14 disclosed above • (6 mg/kg, oral, 2x daily on day 5, 6, 12, 13, 19, 20) • Group 3: Compound according to WO 2005/037800 prepared according to preparation V14 disclosed above • (8 mg/kg, oral, 2× daily on day 5, 6, 12, 13, 19, 20) • Group 4: Compound according to WO 2005/037800 prepared according to preparation V14 disclosed above • (10 mg/kg, oral, 2× daily on day 5, 6, 12, 13, 19, 20)
The study was designed for determining the initial response of a human cervical carcinoma xenograft model to treatments with the 5-Br comparative substance V14. The growth-inhibiting effect of the compounds was tested in the HeLa-MaTu cervical tumor model as xenograft on NMRI nude mice. V14 was dissolved completely in the solubilizer 40% polyethylene glycol 400 (PEG 400)/60% water to a final concentration of 0.6 mg/ml (group 2), 0.8 mg/ml (group 3), or 1.0 mg/ml (group 4). Treatment of the established tumors was begun on day 5 after inoculation of the tumors.

T2 sequence (P35968 20-1356): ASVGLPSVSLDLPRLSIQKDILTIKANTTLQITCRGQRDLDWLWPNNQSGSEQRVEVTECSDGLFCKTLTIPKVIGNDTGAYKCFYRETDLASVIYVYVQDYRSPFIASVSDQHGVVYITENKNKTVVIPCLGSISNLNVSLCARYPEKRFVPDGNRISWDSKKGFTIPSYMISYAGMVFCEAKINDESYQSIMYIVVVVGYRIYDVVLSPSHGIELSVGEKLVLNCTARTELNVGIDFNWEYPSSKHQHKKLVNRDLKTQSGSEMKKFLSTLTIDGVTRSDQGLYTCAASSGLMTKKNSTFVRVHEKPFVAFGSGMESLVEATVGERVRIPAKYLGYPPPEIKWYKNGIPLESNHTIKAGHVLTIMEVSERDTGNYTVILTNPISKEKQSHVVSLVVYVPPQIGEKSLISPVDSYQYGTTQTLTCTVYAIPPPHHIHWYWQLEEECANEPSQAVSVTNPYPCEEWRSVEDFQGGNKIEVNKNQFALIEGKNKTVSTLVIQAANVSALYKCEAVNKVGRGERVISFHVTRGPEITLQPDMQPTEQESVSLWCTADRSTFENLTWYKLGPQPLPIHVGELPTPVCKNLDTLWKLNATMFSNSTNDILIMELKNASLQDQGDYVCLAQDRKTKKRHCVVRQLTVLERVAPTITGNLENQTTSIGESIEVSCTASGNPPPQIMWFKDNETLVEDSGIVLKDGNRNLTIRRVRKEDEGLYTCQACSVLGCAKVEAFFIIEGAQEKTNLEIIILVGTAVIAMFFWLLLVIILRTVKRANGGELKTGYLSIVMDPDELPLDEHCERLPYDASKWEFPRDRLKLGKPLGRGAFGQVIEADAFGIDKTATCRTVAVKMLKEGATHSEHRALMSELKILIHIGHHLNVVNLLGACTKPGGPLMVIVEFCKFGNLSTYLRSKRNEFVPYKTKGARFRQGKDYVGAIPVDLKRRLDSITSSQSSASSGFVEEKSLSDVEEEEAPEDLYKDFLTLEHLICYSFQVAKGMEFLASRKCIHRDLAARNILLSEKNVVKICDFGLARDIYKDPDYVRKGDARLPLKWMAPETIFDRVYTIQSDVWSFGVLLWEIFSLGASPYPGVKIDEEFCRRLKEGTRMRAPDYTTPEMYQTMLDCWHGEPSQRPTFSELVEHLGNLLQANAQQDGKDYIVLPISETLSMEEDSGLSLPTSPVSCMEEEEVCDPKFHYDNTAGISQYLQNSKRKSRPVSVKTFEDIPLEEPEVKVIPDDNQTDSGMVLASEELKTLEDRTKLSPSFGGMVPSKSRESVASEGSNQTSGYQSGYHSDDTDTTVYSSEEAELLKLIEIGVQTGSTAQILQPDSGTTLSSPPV
T1 sequence (P06493 whole entry): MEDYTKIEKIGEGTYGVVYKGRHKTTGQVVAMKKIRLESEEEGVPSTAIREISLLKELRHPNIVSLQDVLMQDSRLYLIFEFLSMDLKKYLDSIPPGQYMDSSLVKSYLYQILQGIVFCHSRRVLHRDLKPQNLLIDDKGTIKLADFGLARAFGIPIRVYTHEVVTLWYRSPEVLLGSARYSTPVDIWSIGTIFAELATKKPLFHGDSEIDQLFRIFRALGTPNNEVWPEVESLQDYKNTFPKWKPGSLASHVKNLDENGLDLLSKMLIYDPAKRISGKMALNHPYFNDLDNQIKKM
T1 sequence (P14635 whole entry partner): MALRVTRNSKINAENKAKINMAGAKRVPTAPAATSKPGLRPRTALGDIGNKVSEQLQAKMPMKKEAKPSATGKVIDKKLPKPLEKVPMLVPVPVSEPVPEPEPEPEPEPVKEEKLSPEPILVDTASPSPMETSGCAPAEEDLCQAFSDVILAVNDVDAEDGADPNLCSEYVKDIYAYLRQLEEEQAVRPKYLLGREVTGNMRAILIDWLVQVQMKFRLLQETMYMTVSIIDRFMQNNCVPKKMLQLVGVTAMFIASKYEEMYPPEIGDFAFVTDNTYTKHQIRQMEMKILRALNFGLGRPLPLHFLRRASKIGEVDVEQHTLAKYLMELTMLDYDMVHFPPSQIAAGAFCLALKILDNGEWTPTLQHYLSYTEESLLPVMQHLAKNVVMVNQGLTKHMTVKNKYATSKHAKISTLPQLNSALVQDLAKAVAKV

As for `C[C@@H](O)[C@@H](C)Oc1nc(Nc2ccc(S(C)(=N)=O)cc2)ncc1Br` (stereo partly shown) [Example V13], the pIC50 in series [1] is 8.05; on CDK1/CycB it was 8.52; in series [2], 6.85. In addition, in series [3] (10 mg/kg (group 4), day 20), the “reduction of tumor weight at the end of the study to % of the control group” value is recorded as 23%. For the same compound, in series [3] (10 mg/kg), the “tolerability of the cyclic treatment regimen” value is on record as “well-tolerated”. In addition, the “effect on tumor growth (in words)” value in series [3] (6, 8, 10 mg/kg) is recorded as “dose-dependent inhibition of tumor growth”. Besides, the response vs control in vivo at 10 mg/kg in series [3] (Mus musculus, 480 h, 10 mg/kg (group 4), day 20, read-out: treatment/control ratio T/C (tumor weight)) is 23%.
